The source made the active and inactive calls. The calls are words filed in the database; no cut-off is given here. Bridge positions count the residues as written; N and C are the ends. Square brackets hold non-standard residues; d marks the D form. Peptide text beside a SMILES is read from it. * marks the point of attachment. ξ: configuration not given here. Heptanoyl(6-Me) = CC(C)CCCCC(=O)*; dDab = NCC[C@@H](N)C(=O)O; Orn = NCCC[C@H](N)C(=O)O; Dab = NCC[C@H](N)C(=O)O; ξP = O=C(O)C1CCCN1
Key:
Rattus norvegicus = species: Rattus norvegicus; test: Induction of wound healing in surgically-induced Albino Wistar rat wound model inoculated with methicillin-resistant Staphylococcus aureus assessed as reduction in scarring measured after 11 days by H&E staining based analysis; assay type: functional; conditions: time 11.0 day
Cell membrane [1] = test: Induction of cytoplasmic membrane depolarization in Klebsiella pneumoniae assessed as increase in fluorescence intensity at 5 uM by DiSC3-5 dye based fluorescence method; assay type: subcellular
Cell membrane [2] = test: Induction of outer membrane permeabilization in methicillin-resistant Staphylococcus aureus incubated for 5 to 20 mins by fluorescence based NPN uptake assay; assay type: subcellular; conditions: time 5-20 min
Pseudomonas aeruginosa [3] = test: Induction of resistance development in Pseudomonas aeruginosa assessed as fold increase in MIC at 0.5 times of MIC incubated with compound for 12 hrs followed by replacement with fresh medium for 12 hrs and measured after 20 repeated cycles; assay type: functional, organism-based; conditions: time 240.0 hrs
Klebsiella pneumoniae [4] = test: Induction of resistance development in Klebsiella pneumoniae assessed as fold increase in MIC at 0.5 times of MIC incubated with compound for 12 hrs followed by replacement with fresh medium for 12 hrs and measured after 20 repeated cycles; assay type: functional; conditions: time 240.0 hrs
Klebsiella pneumoniae [5] = test: Antibacterial activity against Klebsiella pneumoniae ATCC BAA-1705 assessed as inhibition of bacterial growth at 25 to 100 uM incubated overnight by spotting assay; assay type: functional, organism-based; conditions: dose 25-100 µM
Staphylococcus aureus [6] = test: Antibacterial activity against patient-derived methicillin-resistant Staphylococcus aureus assessed as inhibition of bacterial growth incubated for 24 hrs by CLSI protocol based microdilution method; assay type: functional
Escherichia coli [7] = test: Antibacterial activity against Escherichia coli ATCC CRM-11229 assessed as inhibition of bacterial growth at 25 to 100 uM incubated overnight by spotting assay; assay type: functional, organism-based; conditions: dose 25-100 µM
Escherichia coli [8] = test: Antibacterial activity against Escherichia coli ATCC CRM-11229 assessed as inhibition of bacterial growth incubated for 24 hrs by CLSI protocol based microdilution method; assay type: functional
Staphylococcus aureus [9] = test: Antibacterial activity against patient-derived methicillin-resistant Staphylococcus aureus assessed as inhibition of bacterial growth at 25 to 100 uM incubated overnight by spotting assay; assay type: functional, organism-based; conditions: dose 25-100 µM
Klebsiella pneumoniae [10] = test: Antibacterial activity against Klebsiella pneumoniae ATCC BAA-1705 assessed as inhibition of bacterial growth incubated for 24 hrs by CLSI protocol based microdilution method; assay type: functional
Pseudomonas aeruginosa [11] = test: Antibacterial activity against patient-derived Pseudomonas aeruginosa assessed as inhibition of bacterial growth at 25 to 100 uM incubated overnight by spotting assay; assay type: functional, organism-based; conditions: dose 25-100 µM
Pseudomonas aeruginosa [12] = test: Antibacterial activity against patient-derived Pseudomonas aeruginosa assessed as inhibition of bacterial growth incubated for 24 hrs by CLSI protocol based microdilution method; assay type: functional

`C=CN1CCCC1=O.II` was tested, and the Activity (Rattus norvegicus) was “inactive”.

In the case of `CC(C)C[C@@H]1NC(=O)[C@H](CCCN)NC(=O)[C@H](C(C)C)NC(=O)[C@@H]2CCCN2C(=O)[C@@H](Cc2ccccc2)NC(=O)[C@H](CC(C)C)NC(=O)[C@H](CCCN)NC(=O)[C@H](C(C)C)NC(=O)C2CCCN2C(=O)[C@@H](Cc2ccccc2)NC1=O` (stereo partly drawn) (cyclo(L[dF]PV[Orn]L[dF][ξP]V[Orn])), the Activity (Cell membrane [1]) is reported as “Active”.

`CC(C)CCCCC(=O)N[C@@H](CCN)C(=O)N[C@H](C(=O)N[C@@H](CCN)C(=O)N[C@H]1CCNC(=O)[C@H]([C@@H](C)O)NC(=O)[C@H](CCN)NC(=O)[C@H](CCN)NC(=O)[C@H](CC(C)C)NC(=O)[C@@H](Cc2ccccc2)NC(=O)[C@@H](CCN)NC1=O)[C@@H](C)O` ({Heptanoyl(6-Me)}-[Dab]T[Dab][Dab][dDab][dF]L[Dab][Dab]T; lactam 4-C) was tested, and the Activity (Cell membrane [2]) was “Active”.

Work on COLISTIN yielded a fold change (FC) (Pseudomonas aeruginosa [3]) of 2 and a fold change (FC) (Klebsiella pneumoniae [4]) of 4.

H-LPIIKWVKKFFWRWR-OH was tested, and the Activity (Klebsiella pneumoniae [5]) was “Active”, the MIC (Staphylococcus aureus [6]) was 15 µM and the Activity (Escherichia coli [7]) was “Active”. The MIC (Escherichia coli [8]) was 8 µM, the Activity (Staphylococcus aureus [9]) was “Active” and the MIC (Klebsiella pneumoniae [10]) was 16 µM. For the same compound, the Activity (Pseudomonas aeruginosa [11]) was “Active” and the MIC (Pseudomonas aeruginosa [12]) was 10 µM.
